# From patent publication US20110312961A1, “2,5-Disubstituted Morpholine Orexin REceptor Antagonists” (priority 2008, published 2011)
# What was measured:
# rat native α7 receptors = target: T1, rat native α7 receptors (Rattus norvegicus, UniProt Q05941); assay: [3H]MLA radioligand binding, α7 NNR subtype, rat hippocampal membranes; conditions: read-out: Ki, inhibition of [3H]methyllycaconitine (MLA) binding to rat native α7 receptors
# T1 construct: rat native α7 receptors in rat hippocampal membranes; from tissue; host or cells: rat (female Sprague-Dawley) hippocampus membranes
# Experimental: Rats (female, Sprague-Dawley), weighing 150-250 g, were maintained on a 12 h light/dark cycle and were allowed free access to water and food supplied by PMI Nutrition International, Inc. Animals were anesthetized with 70% CO2, and then decapitated. Brains were removed and placed on an ice-cold platform. The hippocampus was removed and placed in 10 volumes (weight:volume) of ice-cold preparative buffer (137 mM NaCl, 10.7 mM KCl, 5.8 mM KH2PO4, 8 mM Na2HPO4, 20 mM HEPES (free acid), 5 mM iodoacetamide, 1.6 mM EDTA, pH 7.4); PMSF, dissolved in methanol to a final concentration of 100 μM, was added and the tissue suspension was homogenized by Polytron. […] Protein was determined by the method of Lowry et al., J. Biol. Chem. 193: 265 (1951), using bovine serum albumin as the standard.
# The binding of [^3H]MLA was measured using a modification of the methods of Davies et al., Neuropharmacol. […] The binding of [^3H]MLA was determined using a 2 h incubation at 21° C. […] Non-specific binding was determined by inclusion of 50 μM non-radioactive MLA in selected wells.
# The inhibition of [^3H]MLA binding by test compounds was determined by including seven different concentrations of the test compound in selected wells. […] Inhibition constants (Ki values), reported in nM, were calculated from the IC50 values using the method of Cheng et al., Biochem. Pharmacol. 22: 3099-3108 (1973).
# normal rats = assay: Novel object recognition (NOR) task; format: in vivo, rat; conditions: for Minimum Effective Dose (MED): oral, rats (FIG. 2)
# Experimental: Memory was assessed by using the three-trial novel object recognition test. On the first day (exploratory trial), rats were allowed to explore an open arena (44.5×44.5×30.5 cm) for 6 min. On the second day (acquisition trial), rats were allowed to explore the same arena in the presence of two identical objects (both object A) for 3 minutes. On the third day (retention or recall trial), performance was evaluated by allowing the same animal to re-explore the arena for 3 minutes in the presence of two different objects: the familiar object A and a novel object B. An inter-trial interval of 24 hours was imposed between the three NOR trials. Recognition memory was assessed by comparing the time spent exploring a novel (object B) versus a familiar (object A) object during the recall trial. Recognition index was assessed for each animal and expressed as a ratio ((time B/time A+time B)×100).
# [1] = system: ovalbumin-sensitized mice; assay: Airway hyperresponsiveness (Penh) and BALF cell counts; format: in vivo, mouse; conditions: for methacholine-induced increase in Penh values: FIG. 21
# Experimental: Using the method of Hamelmann et al, (2S,3R)—N-2-((3-pyridinyl)methyl)-1-azabicyclo[2.2.2]oct-3-yl)-3,5-difluorobenzamide was evaluated for possible inhibition of airway hyper-responsiveness in mice. Briefly, ovalbumin (OVA)-sensitized animals, 12 animals per group, were challenged by nasal inhalation with aerosolized 5% OVA for 25 min on days 21, 23, and 25. The mice were treated with vehicle or (2S,3R)—N-2-((3-pyridinyl)methyl)-1-azabicyclo[2.2.2]oct-3-yl)-3,5-difluorobenzamide subcutaneously (s.c.) twice daily from day 21 to day 26 or once daily intratracheally (i.t.), preceding ovalbumin aerosol challenge by 30 min on days 21, 23 and 25 as well as methacholine challenge or bronchoalveolar lavage fluids (BALF) harvest on day 26. Dexamethasone, the reference standard, was administered at 3 mg/kg orally (p.o.) once daily 60 min before OVA challenge on day 21, 23 and 25 and 60 min before methacholine provocation or BALF harvest on day 26. Noninvasive measurements of airway responsiveness were performed by using whole body plethysmography, in which increases in enhanced pause (Penh) serve as an index of airway obstruction. Responses to inhaled methacholine were measured and calculated as percentage of respective baseline values. Unpaired Students t-test was used for comparison between the vehicle control and the sham group; one-way ANOVA and Dunnett's post-hoc analyses were applied for comparison between the vehicle control and treated groups. Statistical significance is considered at P<0.05.
# T1 sequence (Q05941 23-502): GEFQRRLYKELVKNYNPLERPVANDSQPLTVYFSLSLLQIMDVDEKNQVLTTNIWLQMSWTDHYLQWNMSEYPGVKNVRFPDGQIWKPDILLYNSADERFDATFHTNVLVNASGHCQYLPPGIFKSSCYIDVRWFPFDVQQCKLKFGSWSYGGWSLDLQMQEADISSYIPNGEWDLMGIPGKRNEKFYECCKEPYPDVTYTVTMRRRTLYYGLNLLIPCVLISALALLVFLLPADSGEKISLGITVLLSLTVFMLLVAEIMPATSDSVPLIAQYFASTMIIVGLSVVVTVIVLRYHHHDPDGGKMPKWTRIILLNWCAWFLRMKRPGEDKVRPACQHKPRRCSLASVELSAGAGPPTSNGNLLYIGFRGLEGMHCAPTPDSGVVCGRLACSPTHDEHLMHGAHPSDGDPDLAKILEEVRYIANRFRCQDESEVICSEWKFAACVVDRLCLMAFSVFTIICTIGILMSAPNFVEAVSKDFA
smiles,measurement,setting,value
O=C(N[C@@H]1C2CCN(CC2)[C@H]1Cc1cccnc1)c1cc(F)cc(F)c1 [Compound A],Ki,rat native α7 receptors,100 nM
same,lowest dose with statistically significant effect,"normal rats; NOR vs. dose, FIG. 1",0.1 mg/kg
same,lowest dose with statistically significant effect,"normal rats; NOR, FIGS. 1-4",0.03 µM/kg
same,"effects observed out to, after dosing","normal rats; NOR, FIGS. 1-4, dose not given in the sentence",≤ 18 h
same,lowest dose with statistically significant effect,"normal rats; NOR, determination of minimum effective dose, FIG. 2",0.03 mg/kg
same,Minimum Effective Dose (MED),"normal rats; NOR, listed as (2S,3R)-N-2-((3-pyridinyl)methyl)-1-azabicyclo[2.2.2]oct-3-yl)-3,5-difluorobenza",MED = 0.084 μmol/kg
same,Minimum Effective Dose (MED),"normal rats; NOR, listed as (2S,3R)—N-2-((3-pyridinyl)methyl)-1-azabicyclo[2.2.2]oct-3-yl)-3,5-difluorobenza",0.084 µmol/kg
same,"effect in ""recall only"" session",normal rats; single oral administration of 0.28 μmol/kg on day 3,demonstrated pro-cognitive effects
same,methacholine-induced increase in Penh values,[1]; 10 mg/kg IT qd,significant inhibition
same,monocytes in BALF,[1]; 10 mg/kg SC,reduced
same,methacholine-induced increase in Penh values,"[1]; 0.1, 1, and 10 mg/kg bid s.c.",significant inhibition
same,airway hyper-responsiveness,"[1]; 0.1, 1 and 10 mg/kg bid s.c. and 10 mg/kg i.t., multiple administrations",significant protection against airway hyper-responsiveness
same,total WBC and eosinophils in BALF,[1]; 0.1 and 1 mg/kg SC,significantly reduced
same,lymphocytes in BALF,[1]; 0.1 and 1 mg/kg SC as well as 10 mg/kg IT,reduced
same,eosinophils and white blood cells in BALF,"[1]; multiple administrations, lacks a consistent dose-response relationship",significant reduction
